Experimental data published in patent US20240376108A1, “SALT AND CRYSTAL FORM OF PYRAZOLE-CONTAINING POLYCYCLIC DERIVATIVE, AND PREPARATION METHOD THEREFOR AND USE THEREOF” (Shanghai Hansoh Biomedical Co., Ltd., priority 2021, published 2024).

Columns and labels:
[1] = Pharmacokinetic assay of the salt forms in rats (10 mg/kg); type: in vivo; conditions: SD rats
Description: 2.3 Pharmacokinetic assay of the methanesulfonate in rats
2.3.1. Study objective: SD rats were used as test animals. The pharmacokinetic behavior of various salt forms of 2-(2-cyano-5-oxo-8-(trifluoromethyl)pyrazolo[1,5-a]pyrido[3,2-e]pyrimidin-4(5H)-yl)-N-(5-fluoropyridin-2-yl)acetamide was studied in rat body (plasma) by orally administration at a dose of 10 mg/kg.
2.3.2.4 Administration: After an overnight fast, male SD rats (3 rats per group) were administered p.o. with the test compound at a dose of 10 mg/kg and a volume of 10 mL/kg.
2.3.2.5 Sample collection: 0.2 mL of blood was taken from the jugular vein of the rat before administration and at 0, 0.5, 1, 2, 4, 6, 8 and 24 hours after administration. The samples were stored in EDTA-K2 tubes, and centrifuged for 6 minutes at 4° C., 6000 rpm to separate the plasma. The plasma samples were stored at −80° C.
1) 160 μL of acetonitrile was added to 40 μL of the plasma sample for precipitation, and then the mixture was centrifuged at 3500×g for 5 to 20 minutes.
2) After the above process, 100 μL of the supernatant was taken to analyze the concentration of the test compound by LC/MS/MS.
2.3.2.7 Liquid chromatography analysis • Liquid chromatography condition: Shimadzu LC-20AD pump • Mass spectrometry condition: AB Sciex API 4000 mass spectrometer • Chromatographic column: phenomenex Gemiu 5 um C18 50×4.6 mm • Mobile phase: Eluent A was 0.1% formic acid in water, and Eluent B was acetonitrile • Flow rate: 0.8 mL/min • Elution time: 0-4.0 minutes, the eluent is as follows:
The main parameters of pharmacokinetics were calculated by WinNonlin 8.2.

[2] = Solid stability experiment (high temperature, high humidity, high temperature and high humidity); type: physicochemical
Description: 4.1.1 Experimental objective: To investigate the physical and chemical stability of the crystal form of the compound under the conditions of high temperature, high humidity, as well as high temperature and high humidity, so as to provide a basis for crystal form screening and storage of the crystal form of the compound.
The content of the salt was determined by HPLC using the external standard method, and the change of relevant substances was calculated by using the chromatographic peak area normalization method.

[3] = Hygroscopicity experiment (DVS); type: physicochemical; conditions: 25° C.
Description: 7.1 Hygroscopicity experiment of crystal forms of different salts of compound 2-(2-cyano-5-oxo-8-(trifluoromethyl)pyrazolo[1,5-a]pyrido[3,2-e]pyrimidin-4(5H)-yl)-N-(5-fluoropyridin-2-yl)acetamide
7.1.1 Experimental objective: To investigate the hygroscopicity of crystal forms of different salts of compound 2-(2-cyano-5-oxo-8-(trifluoromethyl)pyrazolo[1,5-a]pyrido[3,2-e]pyrimidin-4(5H)-yl)-N-(5-fluoropyridin-2-yl)acetamide at different relative humidity, so as to provide a basis for storage.
7.1.2 Experimental protocol: Crystal forms of different salts of the compound were placed in saturated water vapor with different relative humidity to achieve dynamic equilibrium between the compound and water vapor, and the percentage of hygroscopic weight gain of the compound after equilibrium was calculated.

[4] = High humidity (92.5% RH), Day 7
[5] = High humidity (92.5% RH), Day 14
[6] = High temperature (60° C.), Day 7
[7] = High temperature (60° C.), Day 14
[8] = High temperature and high humidity (50° C.&75% RH), Day 7
[9] = High temperature and high humidity (50° C.&75% RH), Day 14
[10] = Cycle 1, target relative humidity 0.0%
[11] = Cycle 1, target relative humidity 10.0%
[12] = Cycle 1, target relative humidity 20.0%
[13] = Cycle 1, target relative humidity 30.0%
[14] = Cycle 1, target relative humidity 40.0%
[15] = Cycle 1, target relative humidity 50.0%
[16] = Cycle 1, target relative humidity 60.0%
[17] = Cycle 1, target relative humidity 70.0%
[18] = Cycle 1, target relative humidity 80.0%
[19] = Cycle 1, target relative humidity 90.0%
[20] = Cycle 1, target relative humidity 95.0%
[21] = Cycle 2, target relative humidity 0.0%
[22] = Cycle 2, target relative humidity 10.0%
[23] = Cycle 2, target relative humidity 20.0%
[24] = Cycle 2, target relative humidity 30.0%
[25] = Cycle 2, target relative humidity 40.0%
[26] = Cycle 2, target relative humidity 50.0%
[27] = Cycle 2, target relative humidity 60.0%
[28] = Cycle 2, target relative humidity 70.0%
[29] = Cycle 2, target relative humidity 80.0%
[30] = Cycle 2, target relative humidity 90.0%
[31] = Cycle 2, target relative humidity 95.0%

## CCS(=O)(=O)O.N#Cc1cc2n(CC(=O)Nc3ccc(F)cn3)c(=O)c3ccc(C(F)(F)F)nc3n2n1 [Ethanesulfonate (crystal form A), 2-(2-cyano-5-oxo-8-(trifluoromethyl)pyrazolo[1,5-a]pyrido[3,2-e]pyrimidin-4(5H)-yl)-N-(5-fluoropyridin-2-yl)acetamide ethanesulfonate]
[1]; 10 mg/kg
  exposure AUC and maximum plasma concentration Cmax compared with the free base: superior
[1]; male, rat, po, p.o. 10 mg/kg, plasma, vehicle 0.5% HPMC, read-out: Area under curve AUC0-t
  AUC(0-t): 30300 ng·h/mL
[1]; male, rat, po, p.o. 10 mg/kg, plasma, vehicle 0.5% HPMC, read-out: Average residence time MRT0-∞
  MRT inf: 4.9 h
[1]; male, rat, po, p.o. 10 mg/kg, plasma, vehicle 0.5% HPMC, read-out: Half life t1/2 (converted)
  half-life: 2.6 h
[1]; male, rat, po, p.o. 10 mg/kg, plasma, vehicle 0.5% HPMC, read-out: Peak time tmax
  Tmax: 4 h
[1]; male, rat, po, p.o. 10 mg/kg, plasma, vehicle 0.5% HPMC, read-out: Plasma concentration Cmax
  Cmax: 3840 ng/mL
[2]; 60° C., 7 and 14 days
  solid stability under high temperature: stable
[2]; 92.5% RH, 7 and 14 days
  solid stability under high humidity: stable
[2]; [4]
  % increase of total impurities: <0.1%
  % maximum increase of single impurity: <0.1%
[2]; [5]
  % increase of total impurities: <0.1%
  % maximum increase of single impurity: <0.1%
[2]; [6]
  % increase of total impurities: >0.2%
  % maximum increase of single impurity: <0.1%
[2]; [7]
  % increase of total impurities: <0.1%
  % maximum increase of single impurity: <0.1%
[2]; [8]
  % increase of total impurities: >0.3%
  % maximum increase of single impurity: >0.1%
[2]; [9]
  % increase of total impurities: >0.2%
  % maximum increase of single impurity: >0.1%
[3]; [10]
  % percentage of mass change, Desorption: −0.012%
  % percentage of mass change, Sorption: 0.000%
[3]; [11]
  % percentage of mass change, Desorption: 0.042%
  % percentage of mass change, Sorption: 0.051%
[3]; [12]
  % percentage of mass change, Desorption: 0.090%
  % percentage of mass change, Sorption: 0.094%
[3]; [13]
  % percentage of mass change, Desorption: 0.137%
  % percentage of mass change, Sorption: 0.139%
[3]; [14]
  % percentage of mass change, Desorption: 0.192%
  % percentage of mass change, Sorption: 0.183%
[3]; [15]
  % percentage of mass change, Desorption: 0.260%
  % percentage of mass change, Sorption: 0.231%
[3]; [16]
  % percentage of mass change, Desorption: 0.334%
  % percentage of mass change, Sorption: 0.297%
[3]; [17]
  % percentage of mass change, Desorption: 0.442%
  % percentage of mass change, Sorption: 0.401%
[3]; [18]
  % percentage of mass change, Desorption: 0.625%
  % percentage of mass change, Sorption: 0.572%
[3]; [19]
  % percentage of mass change, Desorption: 1.135%
  % percentage of mass change, Sorption: 1.025%
[3]; [20]
  % percentage of mass change, Desorption: 1.927%
  % percentage of mass change, Sorption: 1.927%
[3]; [21]
  % percentage of mass change, Desorption: −0.016%
  % percentage of mass change, Sorption: −0.012%
[3]; [22]
  % percentage of mass change, Desorption: 0.035%
  % percentage of mass change, Sorption: 0.037%
[3]; [23]
  % percentage of mass change, Desorption: 0.083%
  % percentage of mass change, Sorption: 0.083%
[3]; [24]
  % percentage of mass change, Desorption: 0.130%
  % percentage of mass change, Sorption: 0.127%
[3]; [25]
  % percentage of mass change, Desorption: 0.184%
  % percentage of mass change, Sorption: 0.174%
[3]; [26]
  % percentage of mass change, Desorption: 0.250%
  % percentage of mass change, Sorption: 0.228%
[3]; [27]
  % percentage of mass change, Desorption: 0.321%
  % percentage of mass change, Sorption: 0.295%
[3]; [28]
  % percentage of mass change, Desorption: 0.421%
  % percentage of mass change, Sorption: 0.388%
[3]; [29]
  % percentage of mass change, Desorption: 0.584%
  % percentage of mass change, Sorption: 0.541%
[3]; [30]
  % percentage of mass change, Desorption: 1.020%
  % percentage of mass change, Sorption: 0.942%
[3]; [31]
  % percentage of mass change, Desorption: 1.683%
  % percentage of mass change, Sorption: 1.683%
